These results are taken from ChEMBL document CHEMBL5500384, “New synergistic benzoquinone scaffolds as inhibitors of mycobacterial cytochrome bc1 complex to treat multi-drug resistant tuberculosis” (Eur J Med Chem, 2024).

Holding throughout (type): functional
Assay [1] concerns Mycobacterium tuberculosis. The assay can be described thus: Potentiation of isoniazid antitubercular activity against multidrug resistant Mycobacterium tuberculosis RF21212 assessed as decrease in isoniazid MIC99.9 at 3.125 ug/ml by broth dilution method (reference value: 12.8 ug/ml). Particulars: dose 3.125 µg/ml. On the technique in general: Dilution methods test growth across graded concentrations, often in twofold steps.

For assay [2], the system named is Mycobacterium tuberculosis. The assay can be described thus: Antitubercular activity against multidrug resistant Mycobacterium tuberculosis RF21212 incubated for 5 days by microtiter plate method. Particulars: time 5 day; for MIC: Mycobacterium tuberculosis, RF21212, 120 h.
Assay [3] has as its system Mycobacterium tuberculosis. The assay can be described thus: Potentiation of isoniazid antitubercular activity against multidrug resistant Mycobacterium tuberculosis RF21250 assessed as decrease in isoniazid MIC99.9 at 0.39 ug/ml by broth dilution method (reference value: 3.2 ug/ml). The following applies: dose 0.39 µg/ml.
The test system of assay [4] is Mycobacterium tuberculosis. The assay can be described thus: Antitubercular activity against multidrug resistant Mycobacterium tuberculosis BLG3381 incubated for 5 days by microtiter plate method. The following applies: BLG3381, 120 h, time 5 day.
The subject of assay [5] is Mycobacterium tuberculosis. Put plainly: Potentiation of rifampicin antitubercular activity against multidrug resistant Mycobacterium tuberculosis BLG3381 assessed as decrease in rifampicin MIC99.9 at 0.39 ug/ml by broth dilution method (reference value: 64 ug/ml). Particulars: dose 0.39 µg/ml.
In assay [6] the test system is Mycobacterium tuberculosis. The assay can be described thus: Potentiation of isoniazid antitubercular activity against multidrug resistant Mycobacterium tuberculosis BLG3381 assessed as decrease in isoniazid MIC99.9 at 0.39 ug/ml by broth dilution method (reference value: 12.8 ug/ml). Particulars: dose 0.39 µg/ml.
In assay [7] the test system is Mycobacterium tuberculosis. Put plainly: Antitubercular activity against multidrug resistant Mycobacterium tuberculosis RF21250 incubated for 5 days by microtiter plate method. The following applies: time 5 day; for MIC: Mycobacterium tuberculosis, RF21250, 120 h.
Assay [8] concerns Mycobacterium tuberculosis. Put plainly: Potentiation of rifampicin antitubercular activity against multidrug resistant Mycobacterium tuberculosis RF21250 assessed as decrease in rifampicin MIC99.9 at 0.39 ug/ml by broth dilution method (reference value: 128 ug/ml). The following applies: dose 0.39 µg/ml.
In assay [9] the test system is Mycobacterium tuberculosis. Put plainly: Potentiation of rifampicin antitubercular activity against multidrug resistant Mycobacterium tuberculosis RF21212 assessed as decrease in rifampicin MIC99.9 at 3.125 ug/ml by broth dilution method (reference value: 128 ug/ml). Particulars: dose 3.125 µg/ml.
The subject of assay [10] is Mycobacterium tuberculosis. The assay can be described thus: Potentiation of isoniazid antitubercular activity against multidrug resistant Mycobacterium tuberculosis BLG3381 assessed as decrease in isoniazid MIC99.9 at 3.125 ug/ml by broth dilution method (reference value: 12.8 ug/ml). The following applies: dose 3.125 µg/ml.
Assay [11] has as its system Mycobacterium tuberculosis. The assay can be described thus: Potentiation of rifampicin antitubercular activity against multidrug resistant Mycobacterium tuberculosis RF21212 assessed as decrease in rifampicin MIC99.9 at 0.78 ug/ml by broth dilution method (reference value: 128 ug/ml). Particulars: dose 0.78 µg/ml.
Assay [12] relates to Mycobacterium tuberculosis. Put plainly: Potentiation of rifampicin antitubercular activity against multidrug resistant Mycobacterium tuberculosis RF21250 assessed as decrease in rifampicin MIC99.9 at 0.78 ug/ml by broth dilution method (reference value: 128 ug/ml). Particulars: dose 0.78 µg/ml.
Assay [13] relates to Mycobacterium tuberculosis. Put plainly: Potentiation of rifampicin antitubercular activity against multidrug resistant Mycobacterium tuberculosis BLG3381 assessed as decrease in rifampicin MIC99.9 at 3.125 ug/ml by broth dilution method (reference value: 64 ug/ml). Particulars: dose 3.125 µg/ml.
Assay [14] has as its system Mycobacterium tuberculosis. Put plainly: Potentiation of isoniazid antitubercular activity against multidrug resistant Mycobacterium tuberculosis RF21250 assessed as decrease in isoniazid MIC99.9 at 0.78 ug/ml by broth dilution method (reference value: 3.2 ug/ml). The following applies: dose 0.78 µg/ml.
Assay [15] concerns Mycobacterium tuberculosis. The assay can be described thus: Potentiation of isoniazid antitubercular activity against multidrug resistant Mycobacterium tuberculosis RF21212 assessed as decrease in isoniazid MIC99.9 at 1.56 ug/ml by broth dilution method (reference value: 12.8 ug/ml). Particulars: dose 1.56 µg/ml.
The subject of assay [16] is Mycobacterium tuberculosis. Put plainly: Potentiation of rifampicin antitubercular activity against multidrug resistant Mycobacterium tuberculosis RF21212 assessed as decrease in rifampicin MIC99.9 at 1.56 ug/ml by broth dilution method (reference value: 128 ug/ml). The following applies: dose 1.56 µg/ml.
Assay [17] concerns Mycobacterium tuberculosis. The assay can be described thus: Potentiation of isoniazid antitubercular activity against multidrug resistant Mycobacterium tuberculosis RF21250 assessed as decrease in isoniazid MIC99.9 at 1.56 ug/ml by broth dilution method (reference value: 3.2 ug/ml). The following applies: dose 1.56 µg/ml.
For assay [18], the system named is Mycobacterium tuberculosis. The assay can be described thus: Potentiation of isoniazid antitubercular activity against multidrug resistant Mycobacterium tuberculosis RF21212 assessed as decrease in isoniazid MIC99.9 at 0.78 ug/ml by broth dilution method (reference value: 12.8 ug/ml). Particulars: dose 0.78 µg/ml.
Assay [19] relates to Mycobacterium tuberculosis. The assay can be described thus: Potentiation of isoniazid antitubercular activity against multidrug resistant Mycobacterium tuberculosis BLG3381 assessed as decrease in isoniazid MIC99.9 at 6.25 ug/ml by broth dilution method (reference value: 12.8 ug/ml). The following applies: dose 6.25 µg/ml.
The subject of assay [20] is Mycobacterium tuberculosis. Put plainly: Potentiation of isoniazid antitubercular activity against multidrug resistant Mycobacterium tuberculosis RF21250 assessed as decrease in isoniazid MIC99.9 at 3.125 ug/ml by broth dilution method (reference value: 3.2 ug/ml). Particulars: dose 3.125 µg/ml.
Assay [21] deals with Mycobacterium tuberculosis. The assay can be described thus: Potentiation of rifampicin antitubercular activity against multidrug resistant Mycobacterium tuberculosis BLG3381 assessed as decrease in rifampicin MIC99.9 at 6.25 ug/ml by broth dilution method (reference value: 64 ug/ml). The following applies: dose 6.25 µg/ml.
Assay [22] relates to Mycobacterium tuberculosis. The assay can be described thus: Potentiation of rifampicin antitubercular activity against multidrug resistant Mycobacterium tuberculosis RF21250 assessed as decrease in rifampicin MIC99.9 at 3.125 ug/ml by broth dilution method (reference value: 128 ug/ml). Particulars: dose 3.125 µg/ml.

Values after ≈ are worked out from the molar mass of the structure shown.

On to `NC1=C(Cl)C(=O)c2ccccc2C1=O`, for which the MIC99.9 in assay [1] was 1.6 µg/mL; in [2] it was 6.25 µg/mL (≈ 30.1 µM); in assay [3], 0.2 µg/mL; in [5] it was 0.007 µg/mL; in [6], 0.8 µg/mL; in assay [7] it was 3.125 µg/mL (≈ 15.1 µM). Besides, the MIC99.9 was 0.125 µg/mL in assay [8] and 4 µg/mL in assay [9]. Moreover, it took 15.1 µM to inhibit growth in assay [4] (MIC).
With `CCOc1cc(C2C(Cl)C(=O)N2C2=C(Cl)C(=O)c3ccccc3C2=O)ccc1O` (stereo not given), the MIC99.9 is 0.05 µg/mL in assay [10]; 0.5 µg/mL in [11]; 1 µg/mL in assay [12]; 0.5 µg/mL in assay [13]; 3.125 µg/mL (≈ 7.23 µM) in assay [7]; 0.2 µg/mL in [14]. Also, the MIC99.9 in assay [15] turned out to be 0.4 µg/mL. The minimum inhibitory concentration (MIC) (commonly the lowest concentration found to suppress growth) in assay [2] was found to be 7.23 µM (≈ 3.13 µg/mL); in assay [4], 28.9 µM.
Turning to `O=C1C(Cl)=C(N2C(=O)C(Cl)C2c2ccc([N+](=O)[O-])cc2)C(=O)c2ccccc21` (stereo not given), the MIC99.9 in assay [10] was determined as 0.025 µg/mL; in assay [1] it was 1.6 µg/mL; in [12] it was 2 µg/mL; in assay [13], 0.25 µg/mL; in [7], 3.125 µg/mL (≈ 7.49 µM); in assay [14] it was 0.4 µg/mL. The MIC99.9 in [9] came to 2 µg/mL. Further, the MIC is 30 µM (≈ 12.5 µg/mL) in [2] and 15 µM in assay [4].
As for `O=C1C(Cl)=C(N2C(=O)C(Cl)C2c2ccc(Cl)cc2)C(=O)c2ccccc21` (stereo not given), the MIC99.9 is 1.6 µg/mL in [10]; 6.25 µg/mL (≈ 15.4 µM) in assay [2]; 4 µg/mL in assay [12]; 0.1 µg/mL in assay [13]; 6.25 µg/mL (≈ 15.4 µM) in assay [7]; 0.8 µg/mL in assay [14]. Besides, the MIC99.9 is 0.031 µg/mL in assay [16] and 0.1 µg/mL in assay [15]. In assay [4], the MIC came out at 30.8 µM.
As to `CN(C)c1ccc(C2C(Cl)C(=O)N2C2=C(Cl)C(=O)c3ccccc3C2=O)cc1` (stereo not given), the MIC99.9 in assay [10] stood at 1.6 µg/mL; in assay [2] it was 6.25 µg/mL (≈ 15.1 µM); in [12] it was 1 µg/mL; in assay [13], 4 µg/mL; in assay [7] it was 6.25 µg/mL (≈ 15.1 µM); in [16], 16 µg/mL. In addition, the MIC99.9 was found to be 3.2 µg/mL in [15] and 1.6 µg/mL in assay [17]. In [4], this compound yielded an MIC of 30.1 µM.
Compound `O=C1C(Cl)=C(N2C(=O)C(Cl)C2c2ccccc2)C(=O)c2ccccc21` (stereo not given) had an MIC in [4] of 6.25 µg/mL.
In the case of `COc1ccc(C2C(Cl)C(=O)N2C2=C(Cl)C(=O)c3ccccc3C2=O)cc1` (stereo not given), the MIC99.9 amounted to 0.4 µg/mL in [10]; 0.4 µg/mL in assay [3]; 1 µg/mL in [13]; 6.25 µg/mL (≈ 15.5 µM) in assay [7]; 0.125 µg/mL in assay [8]; 16 µg/mL in [16]. Besides, the MIC99.9 in assay [18] is 1.6 µg/mL. For the same compound, the results for the MIC in [2] and in [4] were 31.1 µM (≈ 12.5 µg/mL) and 15.5 µM, respectively.
Consider `O=C1C(Cl)=C(Cl)C(=O)c2ccccc21` [Dichlon], for which the MIC99.9 in [1] is 3.2 µg/mL; in assay [19] it was 0.8 µg/mL; in assay [20], 0.4 µg/mL; in [21], 8 µg/mL; in assay [22], 16 µg/mL; in assay [9], 32 µg/mL. The values for the MIC in [2], in assay [4] and in assay [7] were 55.1 µM (≈ 12.5 µg/mL), 55.1 µM and 27.5 µM (≈ 6.25 µg/mL), respectively.
For `NNC(=O)c1ccncc1` [ISONIAZID], the MIC in [2] amounted to 93.9 µM (≈ 12.9 µg/mL); in assay [4], 93.9 µM; in assay [7] it was 23.3 µM (≈ 3.2 µg/mL).
As for `CO[C@H]1/C=C/O[C@@]2(C)Oc3c(C)c(O)c4c(O)c(c(/C=N/N5CCN(C)CC5)c(O)c4c3C2=O)NC(=O)/C(C)=C\C=C\[C@H](C)[C@H](O)[C@@H](C)[C@@H](O)[C@@H](C)[C@H](OC(C)=O)[C@@H]1C` [RIFAMPIN], the figures for the MIC in assay [2], in assay [4] and in [7] were 156 µM (≈ 128 µg/mL), 77.8 µM and 156 µM (≈ 128 µg/mL), respectively.
